# Measured values from ChEMBL document CHEMBL4879553, “Data for DCP probe BAY1125976” (2021).
# Calls of active or inactive are those of the source. The rule behind the calls is not given here.
# Tests used:
# [1] = molecular target: Muscarinic acetylcholine receptor M1 (Homo sapiens, UniProt P11229); assay: GPCRScan assay: inhibition of M1; parameters: radioligand conc. used [nm] 0.3 – 1.2, parental cells stable CHO
# [2] = Mechanistic cell assay: Reduction of the basal levels of AKT phosphorylation in KPL-4 cells at T308; format: cell-based; conditions: Homo sapiens, KPL4
# [3] = Mechanistic cell assay: Reduction of the basal levels of AKT phosphorylation in KPL-4 cells at S473; format: cell-based; conditions: Homo sapiens, KPL4
# [4] = Mechanistic cell assay: Blocking of the activation of the downstream signaling molecule 4EBP1 by phosphorylation at mTOR substrate T70; parameters: species or system Homo sapiens
# [5] = Mechanistic cell assay: Inhibition of activation by phosphorylation (AKT1-S473); conditions: Homo sapiens
# [6] = Mechanistic cell assay: Inhibition of activation by phosphorylation (4EBPI-T70); conditions: Homo sapiens
# [7] = Mechanistic cell assay: Inhibition of phosphorylation (AKT1-S473); conditions: Homo sapiens
# [8] = Mechanistic cell assay: Inhibition of phosphorylation (T308); conditions: Homo sapiens
# [9] = Mechanistic cell assay: Inhibition of phosphorylation (4EBPI-T70); conditions: Homo sapiens
# [10] = Mechanistic cell assay: inhibition of PRAS40 phosphorylation at T246; conditions: Homo sapiens
# [11] = NanoBRET (AKT1); conditions: Homo sapiens
# [12] = NanoBRET (AKT2); conditions: Homo sapiens
# [13] = molecular target: 5-hydroxytryptamine receptor 1A (Homo sapiens) (UniProt P08908); conditions: Compound concentration 10.0 uM
# [14] = molecular target: 5-hydroxytryptamine receptor 1B (Homo sapiens) (UniProt P28222); conditions: Compound concentration 10.0 uM
# Sequence of 5-hydroxytryptamine receptor 1B (Homo sapiens) (P28222 whole entry): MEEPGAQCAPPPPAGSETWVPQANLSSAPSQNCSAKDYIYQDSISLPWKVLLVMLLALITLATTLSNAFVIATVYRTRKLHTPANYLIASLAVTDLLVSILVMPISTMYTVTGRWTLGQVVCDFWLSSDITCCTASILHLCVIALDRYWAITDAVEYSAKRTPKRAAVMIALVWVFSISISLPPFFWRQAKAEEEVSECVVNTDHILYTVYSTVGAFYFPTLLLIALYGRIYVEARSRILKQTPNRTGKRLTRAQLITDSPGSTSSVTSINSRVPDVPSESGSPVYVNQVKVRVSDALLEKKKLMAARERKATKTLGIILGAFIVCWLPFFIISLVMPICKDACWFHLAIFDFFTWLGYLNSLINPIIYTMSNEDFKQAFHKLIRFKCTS
# [15] = molecular target: 5-hydroxytryptamine receptor 1D (Homo sapiens) (UniProt P28221); conditions: Compound concentration 10.0 uM
# [16] = molecular target: 5-hydroxytryptamine receptor 2A (Homo sapiens) (UniProt P28223); conditions: Compound concentration 10.0 uM
# [17] = molecular target: 5-hydroxytryptamine receptor 2B (Homo sapiens) (UniProt P41595); conditions: Compound concentration 10.0 uM
# Sequence of 5-hydroxytryptamine receptor 2B (Homo sapiens) (P41595 whole entry): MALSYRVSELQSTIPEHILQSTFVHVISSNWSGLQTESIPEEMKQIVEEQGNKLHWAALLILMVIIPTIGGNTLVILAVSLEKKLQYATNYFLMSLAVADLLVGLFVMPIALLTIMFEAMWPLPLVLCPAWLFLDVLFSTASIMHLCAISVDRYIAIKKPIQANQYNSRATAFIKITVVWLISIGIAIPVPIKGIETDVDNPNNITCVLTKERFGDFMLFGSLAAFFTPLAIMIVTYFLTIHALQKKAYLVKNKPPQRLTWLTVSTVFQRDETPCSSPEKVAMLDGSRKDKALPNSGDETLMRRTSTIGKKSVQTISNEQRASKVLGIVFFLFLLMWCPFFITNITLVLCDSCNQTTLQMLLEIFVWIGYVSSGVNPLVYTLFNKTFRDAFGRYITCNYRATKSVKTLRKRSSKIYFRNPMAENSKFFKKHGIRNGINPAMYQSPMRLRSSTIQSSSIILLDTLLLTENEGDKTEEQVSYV
# [18] = molecular target: 5-hydroxytryptamine receptor 2C (Homo sapiens) (UniProt P28335); conditions: Compound concentration 10.0 uM
# Sequence of 5-hydroxytryptamine receptor 2C (Homo sapiens) (P28335 whole entry): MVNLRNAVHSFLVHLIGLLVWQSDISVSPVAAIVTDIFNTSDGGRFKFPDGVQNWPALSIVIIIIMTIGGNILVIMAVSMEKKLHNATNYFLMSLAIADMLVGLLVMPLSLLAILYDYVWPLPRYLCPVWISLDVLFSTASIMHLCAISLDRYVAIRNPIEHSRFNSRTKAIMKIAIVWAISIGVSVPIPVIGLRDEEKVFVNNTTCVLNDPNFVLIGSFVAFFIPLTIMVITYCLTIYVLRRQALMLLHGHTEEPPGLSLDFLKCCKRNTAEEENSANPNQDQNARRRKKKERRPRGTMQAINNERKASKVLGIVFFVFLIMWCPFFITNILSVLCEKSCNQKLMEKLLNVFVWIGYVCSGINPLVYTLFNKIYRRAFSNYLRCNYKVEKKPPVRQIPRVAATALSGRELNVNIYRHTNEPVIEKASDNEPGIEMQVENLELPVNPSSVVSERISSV
# [19] = molecular target: 5-hydroxytryptamine receptor 3A (Homo sapiens) (UniProt P46098); conditions: Compound concentration 10.0 uM
# Sequence of 5-hydroxytryptamine receptor 3A (Homo sapiens) (P46098 whole entry): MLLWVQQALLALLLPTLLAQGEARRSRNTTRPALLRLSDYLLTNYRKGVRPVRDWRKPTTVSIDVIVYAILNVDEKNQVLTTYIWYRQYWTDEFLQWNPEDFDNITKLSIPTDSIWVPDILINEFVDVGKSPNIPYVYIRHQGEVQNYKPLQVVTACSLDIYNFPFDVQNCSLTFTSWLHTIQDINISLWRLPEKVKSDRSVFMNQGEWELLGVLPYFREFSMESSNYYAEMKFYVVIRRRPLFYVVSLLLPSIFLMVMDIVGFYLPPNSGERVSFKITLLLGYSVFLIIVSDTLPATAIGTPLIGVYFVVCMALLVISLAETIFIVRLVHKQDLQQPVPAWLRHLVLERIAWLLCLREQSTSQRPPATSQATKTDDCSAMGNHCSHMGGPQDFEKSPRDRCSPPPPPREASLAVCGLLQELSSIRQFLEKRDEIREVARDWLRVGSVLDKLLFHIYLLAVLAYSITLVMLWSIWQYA
# [20] = molecular target: 5-hydroxytryptamine receptor 5A (Homo sapiens) (UniProt P47898); conditions: Compound concentration 10.0 uM
# [21] = molecular target: 5-hydroxytryptamine receptor 6 (Homo sapiens) (UniProt P50406); conditions: Compound concentration 10.0 uM
# [22] = molecular target: 5-hydroxytryptamine receptor 7 (Homo sapiens) (UniProt P34969); conditions: Compound concentration 10.0 uM
# Sequence of 5-hydroxytryptamine receptor 7 (Homo sapiens) (P34969 whole entry): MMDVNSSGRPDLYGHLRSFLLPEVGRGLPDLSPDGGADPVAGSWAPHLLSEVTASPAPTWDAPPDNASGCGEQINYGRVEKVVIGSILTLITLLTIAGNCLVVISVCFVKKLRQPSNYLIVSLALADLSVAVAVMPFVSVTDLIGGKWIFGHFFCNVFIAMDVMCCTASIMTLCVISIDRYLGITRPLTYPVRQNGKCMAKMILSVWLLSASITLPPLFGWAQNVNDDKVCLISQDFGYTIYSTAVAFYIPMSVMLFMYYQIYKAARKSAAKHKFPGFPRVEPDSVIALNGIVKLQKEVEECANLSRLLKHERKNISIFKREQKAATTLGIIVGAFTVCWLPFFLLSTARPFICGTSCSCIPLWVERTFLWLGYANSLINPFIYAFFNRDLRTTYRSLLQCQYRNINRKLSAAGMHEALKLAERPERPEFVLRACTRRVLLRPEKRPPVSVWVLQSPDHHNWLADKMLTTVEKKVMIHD
# [23] = molecular target: D(1A) dopamine receptor (Homo sapiens) (UniProt P21728); conditions: Compound concentration 10.0 uM
# [24] = molecular target: D(2) dopamine receptor (Homo sapiens) (UniProt P14416); conditions: Compound concentration 10.0 uM
# Sequence of D(2) dopamine receptor (Homo sapiens) (P14416 whole entry): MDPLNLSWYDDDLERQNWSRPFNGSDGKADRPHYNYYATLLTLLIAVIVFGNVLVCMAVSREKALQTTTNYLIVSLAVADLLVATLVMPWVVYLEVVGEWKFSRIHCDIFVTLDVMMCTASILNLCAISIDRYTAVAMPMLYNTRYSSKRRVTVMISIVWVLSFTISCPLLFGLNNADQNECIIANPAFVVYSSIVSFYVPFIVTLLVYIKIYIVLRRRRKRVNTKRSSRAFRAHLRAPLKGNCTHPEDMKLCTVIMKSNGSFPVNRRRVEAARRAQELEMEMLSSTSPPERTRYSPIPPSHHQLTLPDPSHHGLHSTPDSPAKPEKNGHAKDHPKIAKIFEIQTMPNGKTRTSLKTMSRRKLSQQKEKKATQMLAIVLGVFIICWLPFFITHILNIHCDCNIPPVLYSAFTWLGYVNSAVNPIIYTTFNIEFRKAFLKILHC
# [25] = molecular target: D(3) dopamine receptor (Homo sapiens) (UniProt P35462); conditions: Compound concentration 10.0 uM
# [26] = molecular target: D(4) dopamine receptor (Homo sapiens) (UniProt P21917); conditions: Compound concentration 10.0 uM
# [27] = molecular target: D(1B) dopamine receptor (Homo sapiens) (UniProt P21918); conditions: Compound concentration 10.0 uM
# [28] = molecular target: Sodium-dependent serotonin transporter (Homo sapiens) (UniProt P31645); conditions: Compound concentration 10.0 uM
# [29] = molecular target: Sodium-dependent noradrenaline transporter (Homo sapiens) (UniProt P23975); conditions: Compound concentration 10.0 uM
# [30] = molecular target: Sodium-dependent dopamine transporter (Homo sapiens) (UniProt Q01959); conditions: Compound concentration 10.0 uM
# [31] = molecular target: Mu-type opioid receptor (Homo sapiens) (UniProt P35372); conditions: Compound concentration 10.0 uM
# [32] = molecular target: Delta-type opioid receptor (Homo sapiens) (UniProt P41143); conditions: Compound concentration 10.0 uM
# [33] = molecular target: Kappa-type opioid receptor (Homo sapiens) (UniProt P41145); conditions: Compound concentration 10.0 uM
# [34] = molecular target: Histamine H1 receptor (Homo sapiens) (UniProt P35367); conditions: Compound concentration 10.0 uM
# [35] = molecular target: Histamine H2 receptor (Homo sapiens) (UniProt P25021); conditions: Compound concentration 10.0 uM
# [36] = molecular target: Histamine H3 receptor (Homo sapiens) (UniProt Q9Y5N1); conditions: Compound concentration 10.0 uM
# Sequence of Histamine H3 receptor (Homo sapiens) (Q9Y5N1 whole entry): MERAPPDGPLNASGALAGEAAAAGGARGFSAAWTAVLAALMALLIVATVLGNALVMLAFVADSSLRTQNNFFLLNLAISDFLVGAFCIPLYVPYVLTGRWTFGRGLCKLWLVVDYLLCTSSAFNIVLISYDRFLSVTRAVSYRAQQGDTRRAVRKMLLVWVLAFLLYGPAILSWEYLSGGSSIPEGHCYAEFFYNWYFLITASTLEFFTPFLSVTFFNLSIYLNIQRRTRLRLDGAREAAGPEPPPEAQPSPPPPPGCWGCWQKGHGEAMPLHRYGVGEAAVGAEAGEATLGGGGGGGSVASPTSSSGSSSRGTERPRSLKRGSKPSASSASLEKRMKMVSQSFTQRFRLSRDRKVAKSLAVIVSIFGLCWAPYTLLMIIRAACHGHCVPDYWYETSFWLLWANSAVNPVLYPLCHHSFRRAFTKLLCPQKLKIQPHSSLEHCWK
# [37] = molecular target: Alpha-1A adrenergic receptor (Homo sapiens) (UniProt P35348); conditions: Compound concentration 10.0 uM
# [38] = molecular target: Alpha-1B adrenergic receptor (Homo sapiens) (UniProt P35368); conditions: Compound concentration 10.0 uM
# [39] = molecular target: Alpha-2A adrenergic receptor (Homo sapiens) (UniProt P08913); conditions: Compound concentration 10.0 uM
# [40] = molecular target: Alpha-2B adrenergic receptor (Homo sapiens) (UniProt P18089); conditions: Compound concentration 10.0 uM
# [41] = molecular target: Alpha-2C adrenergic receptor (Homo sapiens) (UniProt P18825); conditions: Compound concentration 10.0 uM
# [42] = molecular target: Beta-1 adrenergic receptor (Homo sapiens) (UniProt P08588); conditions: Compound concentration 10.0 uM
# [43] = molecular target: Beta-2 adrenergic receptor (Homo sapiens) (UniProt P07550); conditions: Compound concentration 10.0 uM
# [44] = molecular target: Muscarinic acetylcholine receptor M1 (Homo sapiens) (UniProt P11229); conditions: Compound concentration 10.0 uM
# [45] = molecular target: Muscarinic acetylcholine receptor M2 (Homo sapiens) (UniProt P08172); conditions: Compound concentration 10.0 uM
# [46] = molecular target: Muscarinic acetylcholine receptor M3 (Homo sapiens) (UniProt P20309); conditions: Compound concentration 10.0 uM
# Sequence of Muscarinic acetylcholine receptor M3 (Homo sapiens) (P20309 whole entry, looked up): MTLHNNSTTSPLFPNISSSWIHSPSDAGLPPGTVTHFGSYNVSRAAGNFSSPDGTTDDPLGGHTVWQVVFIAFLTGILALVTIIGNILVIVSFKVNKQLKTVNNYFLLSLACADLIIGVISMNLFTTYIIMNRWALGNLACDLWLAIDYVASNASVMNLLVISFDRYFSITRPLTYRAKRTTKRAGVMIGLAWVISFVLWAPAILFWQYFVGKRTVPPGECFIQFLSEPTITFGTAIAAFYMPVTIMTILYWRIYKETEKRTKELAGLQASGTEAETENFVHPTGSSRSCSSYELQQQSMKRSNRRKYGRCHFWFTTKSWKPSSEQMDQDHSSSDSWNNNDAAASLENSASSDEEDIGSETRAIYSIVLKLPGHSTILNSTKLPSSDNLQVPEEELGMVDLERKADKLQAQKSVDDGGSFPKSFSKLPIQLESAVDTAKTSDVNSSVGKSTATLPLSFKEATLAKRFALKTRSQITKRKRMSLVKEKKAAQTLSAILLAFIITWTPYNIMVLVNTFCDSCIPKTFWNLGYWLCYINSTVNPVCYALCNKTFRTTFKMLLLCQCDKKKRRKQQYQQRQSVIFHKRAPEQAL
# [47] = molecular target: Muscarinic acetylcholine receptor M4 (Homo sapiens) (UniProt P08173); conditions: Compound concentration 10.0 uM
# [48] = molecular target: Muscarinic acetylcholine receptor M5 (Homo sapiens) (UniProt P08912); conditions: Compound concentration 10.0 uM
# [49] = molecular target: Beta-3 adrenergic receptor (Homo sapiens) (UniProt P13945); conditions: Compound concentration 10.0 uM
# [50] = molecular target: GABA-A receptor; anion channel (Rattus norvegicus) (UniProt O09028+P15431+P18506+P18508+P19969+P20236+P23574+P23576+P28471+P28473+P30191+P62813+P63079+P63138+Q91ZM7+Q9ES14); conditions: Compound concentration 10.0 uM
# [51] = organism: Rattus norvegicus; conditions: Compound concentration 10.0 uM
# [52] = molecular target: Alpha-1D adrenergic receptor (Homo sapiens) (UniProt P25100); conditions: Compound concentration 10.0 uM
# [53] = molecular target: Sigma intracellular receptor 2 (Homo sapiens) (UniProt Q5BJF2); conditions: Compound concentration 10.0 uM
# [54] = molecular target: Sigma non-opioid intracellular receptor 1 (Homo sapiens) (UniProt Q99720); conditions: Compound concentration 10.0 uM
# Sequence of Sigma non-opioid intracellular receptor 1 (Homo sapiens) (Q99720 whole entry): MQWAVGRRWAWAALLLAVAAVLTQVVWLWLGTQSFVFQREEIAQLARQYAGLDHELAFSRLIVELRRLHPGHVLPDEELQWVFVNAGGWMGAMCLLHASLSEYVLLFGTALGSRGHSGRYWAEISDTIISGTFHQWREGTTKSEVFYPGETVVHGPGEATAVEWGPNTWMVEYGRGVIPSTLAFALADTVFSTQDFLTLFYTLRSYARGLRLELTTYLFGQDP
# [55] = molecular target: RAC-gamma serine/threonine-protein kinase (Homo sapiens, UniProt Q9Y243); assay: NanoBRET (AKT3)
# Sequence of RAC-gamma serine/threonine-protein kinase (Q9Y243 whole entry): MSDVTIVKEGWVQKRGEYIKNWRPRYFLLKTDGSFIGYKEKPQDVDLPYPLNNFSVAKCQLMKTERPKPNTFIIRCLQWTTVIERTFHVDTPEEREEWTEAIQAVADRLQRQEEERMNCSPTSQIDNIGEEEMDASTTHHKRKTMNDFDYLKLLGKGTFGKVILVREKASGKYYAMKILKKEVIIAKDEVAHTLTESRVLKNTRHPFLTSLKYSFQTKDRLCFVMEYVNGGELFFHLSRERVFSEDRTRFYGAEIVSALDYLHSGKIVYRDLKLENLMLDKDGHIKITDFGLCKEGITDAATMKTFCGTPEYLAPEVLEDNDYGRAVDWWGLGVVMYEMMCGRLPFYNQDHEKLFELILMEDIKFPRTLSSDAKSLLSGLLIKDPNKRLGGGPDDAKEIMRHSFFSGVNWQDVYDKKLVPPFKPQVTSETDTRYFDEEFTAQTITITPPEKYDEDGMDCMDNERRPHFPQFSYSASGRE
# Sequence of Muscarinic acetylcholine receptor M1 (P11229 whole entry): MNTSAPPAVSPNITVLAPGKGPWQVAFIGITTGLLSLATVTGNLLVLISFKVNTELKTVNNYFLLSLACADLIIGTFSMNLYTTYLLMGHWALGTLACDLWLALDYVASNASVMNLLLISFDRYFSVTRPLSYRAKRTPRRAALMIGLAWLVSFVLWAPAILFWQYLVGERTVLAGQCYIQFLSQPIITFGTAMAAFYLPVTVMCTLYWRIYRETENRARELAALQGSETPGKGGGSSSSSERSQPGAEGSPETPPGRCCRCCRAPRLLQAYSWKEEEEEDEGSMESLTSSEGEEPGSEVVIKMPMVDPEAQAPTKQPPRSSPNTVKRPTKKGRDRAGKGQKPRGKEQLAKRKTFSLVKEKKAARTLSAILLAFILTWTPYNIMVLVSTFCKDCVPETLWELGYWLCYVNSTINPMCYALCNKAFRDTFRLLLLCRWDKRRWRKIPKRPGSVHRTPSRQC
structure (smiles),measurement,setting,value
NC(=O)c1ccc2nc(-c3ccc(C4(N)CCC4)cc3)c(-c3ccccc3)n2n1 [BAY-1125976],Ki,[1]; read-out: Ki,1450 nM
same,Ki,[1]; read-out: pKi (converted),1350 nM
same,IC50,[2],0.9 nM (active)
same,IC50,[3],1.1 nM (active)
same,IC50,[4],35 nM (active)
same,IC50,[5],35 nM (active)
same,IC50,[6],100 nM (active)
same,IC50,[7],0.8 nM (active)
same,IC50,[8],5.6 nM (active)
same,IC50,[9],35 nM (active)
same,IC50,[10],141 nM (active)
same,EC50,[11],15 nM (active)
same,IC50,[11],0.00284 µM (active)
same,EC50,[12],30 nM (active)
same,IC50,[12],10.7 nM (active)
same,inhibition,[13],32.7%
same,inhibition,[14],10.2%
same,inhibition,[15],12.2%
same,inhibition,[16],8.08%
same,inhibition,[17],13.4%
same,inhibition,[18],25.7%
same,inhibition,[19],10.8%
same,inhibition,[20],9.78%
same,inhibition,[21],17.8%
same,inhibition,[22],12.9%
same,inhibition,[23],-3.8%
same,inhibition,[24],-1.55%
same,inhibition,[25],22.6%
same,inhibition,[26],7.35%
same,inhibition,[27],23.4%
same,inhibition,[28],14.8%
same,inhibition,[29],47.5%
same,inhibition,[30],40%
same,inhibition,[31],31.1%
same,inhibition,[32],26.9%
same,inhibition,[33],25.4%
same,inhibition,[34],30.8%
same,inhibition,[35],0.95%
same,inhibition,[36],14.6%
same,inhibition,[37],39.4%
same,inhibition,[38],-8.97%
same,inhibition,[39],6.89%
same,inhibition,[40],28.7%
same,inhibition,[41],38.9%
same,inhibition,[42],16.8%
same,inhibition,[43],21.5%
same,inhibition,[44],71.9%
same,inhibition,[45],11.2%
same,inhibition,[46],20.1%
same,inhibition,[47],12.4%
same,inhibition,[48],1.83%
same,inhibition,[49],11.4%
same,inhibition,[50],38%
same,inhibition,[51],40.5%
same,inhibition,[52],37.8%
same,inhibition,[53],39.9%
same,inhibition,[54],-1.31%
NC1(c2ccc(-c3nc4c(O)ccnn4c3-c3ccccc3)cc2)CCC1,EC50,[11],1300 nM (not active)
same,IC50,[11],6 µM (not active)
same,EC50,[55],> 50 µM (not active)
